Results taken from patent publication US12441768B2, “Compositions and methods for treating endometriosis” (EndoMet Biosciences, Inc., priority 2018, dated 2025).
Like-named read-outs stand apart in the source and are kept apart here. Where a SMILES comes first, the peptide text is derived from it.

Target: T1, β-catenin (Homo sapiens, UniProt P35222)
T1 sequence (P35222 1-781): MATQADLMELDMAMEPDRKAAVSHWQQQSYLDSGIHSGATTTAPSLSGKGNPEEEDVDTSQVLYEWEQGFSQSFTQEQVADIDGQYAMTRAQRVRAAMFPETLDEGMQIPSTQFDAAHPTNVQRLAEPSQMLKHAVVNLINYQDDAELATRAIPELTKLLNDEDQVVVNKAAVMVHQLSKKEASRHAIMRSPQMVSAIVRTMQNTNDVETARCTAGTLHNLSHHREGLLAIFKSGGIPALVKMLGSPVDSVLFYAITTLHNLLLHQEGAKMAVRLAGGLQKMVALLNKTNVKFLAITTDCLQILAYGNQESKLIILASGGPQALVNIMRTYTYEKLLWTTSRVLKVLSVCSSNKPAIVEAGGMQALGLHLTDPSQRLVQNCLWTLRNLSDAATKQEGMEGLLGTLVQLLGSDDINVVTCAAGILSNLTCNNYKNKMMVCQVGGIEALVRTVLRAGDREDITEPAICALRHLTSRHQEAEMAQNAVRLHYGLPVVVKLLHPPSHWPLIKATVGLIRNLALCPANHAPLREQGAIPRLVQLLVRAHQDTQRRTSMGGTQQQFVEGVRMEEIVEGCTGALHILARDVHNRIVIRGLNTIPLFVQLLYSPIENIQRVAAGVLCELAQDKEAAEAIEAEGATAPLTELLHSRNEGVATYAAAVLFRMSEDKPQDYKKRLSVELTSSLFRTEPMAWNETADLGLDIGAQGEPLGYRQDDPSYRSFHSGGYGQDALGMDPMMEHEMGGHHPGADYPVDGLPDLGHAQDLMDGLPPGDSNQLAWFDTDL
Assay: KD50 measurement using competitive fluorescence polarization (FP) with labelled TCF4
Type: binding
Conditions: fluorescence polarization, β-catenin
In short: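 First, β-catenin at 100 nM is mixed with 5 nM labelled TCF4 at room temperature. Next, compound is added across serial dilutions (10 nM to 30 uM). Finally, fluorescence polarization is measured (ex 470 nm, em 520 nm); experiments are done three times.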

| SMILES | Kd (read-out: β-Cat FP KD) [µM] | Kd (β-Cat FP KD) [µM] | β-Cat FP Hill slope |
| --- | --- | --- | --- |
| CC[C@H](C)[C@@H]1NC(=O)[C@@H](NC(=O)[C@H](CCC(N)=O)NC(=O)[C@H](C)N(C)C(=O)[C@@H](N)Cc2c[nH]c3ccccc23)CCCCNC(=O)CC[C@@H](C(=O)N[C@@H](Cc2c[nH]cn2)C(=O)N[C@H](C(=O)N[C@@H](CCC(N)=O)C(=O)N[C@@H](CCCNC(=N)N)C(=O)N[C@H](C(=O)N[C@@H](Cc2c[nH]c3ccccc23)C(=O)NCC(N)=O)C(C)C)C(C)C)NC(=O)[C@H](CC(=O)O)NC(=O)[C@H](CC2CCCCC2)NC1=O [compound 406] (HELM PEPTIDE1{W.[meA].Q.K.I.[Cha].D.E.H.V.Q.R.V.W.G.[am]}$PEPTIDE1,PEPTIDE1,4:R3-8:R3$$$V2.0) | > 30 | – | – |
| CC[C@H](C)[C@@H]1NC(=O)[C@@H](NC(=O)[C@H](CCC(N)=O)NC(=O)[C@H](C)N(C)C(=O)[C@H](Cc2c[nH]c3ccccc23)NC(C)=O)CCCCNC(=O)CC[C@@H](C(=O)N[C@@H](Cc2c[nH]cn2)C(=O)N[C@H](C(=O)N[C@@H](CCC(N)=O)C(=O)N[C@@H](CCCNC(=N)N)C(=O)N[C@H](C(=O)N[C@@H](Cc2c[nH]c3ccccc23)C(=O)NCC(N)=O)C(C)C)C(C)C)NC(=O)[C@H](CC(=O)O)NC(=O)[C@H](CC2CCCCC2)NC1=O [compound 407] (HELM PEPTIDE1{[ac].W.[meA].Q.K.I.[Cha].D.E.H.V.Q.R.V.W.G.[am]}$PEPTIDE1,PEPTIDE1,5:R3-9:R3$$$V2.0) | > 30 | – | – |
| CC[C@H](C)[C@@H]1NC(=O)[C@@H](NC(=O)[C@H](CCC(N)=O)NC(=O)[C@H](C)N(C)C(=O)[C@H](Cc2c[nH]c3ccccc23)NC(=O)COc2ccccc2)CCCCNC(=O)CC[C@@H](C(=O)N[C@@H](Cc2c[nH]cn2)C(=O)N[C@H](C(=O)N[C@@H](CCC(N)=O)C(=O)N[C@@H](CCCNC(=N)N)C(=O)N[C@H](C(=O)N[C@@H](Cc2c[nH]c3ccccc23)C(=O)NCC(N)=O)C(C)C)C(C)C)NC(=O)[C@H](CC(=O)O)NC(=O)[C@H](CC2CCCCC2)NC1=O [compound 408] (HELM PEPTIDE1{[O=C(COc1ccccc1)[*:2]].W.[meA].Q.K.I.[Cha].D.E.H.V.Q.R.V.W.G.[am]}$PEPTIDE1,PEPTIDE1,5:R3-9:R3$$$V2.0) | – | > 30 | – |
| CC[C@H](C)[C@H](NC(=O)[C@H](CO)NC(=O)[C@H](CCC(=O)O)NC(=O)[C@@H]1CCCN1C(=O)[C@H](CC(C)C)NC(=O)[C@H](CCCNC(=N)N)NC(=O)CCNC(C)=O)C(=O)N[C@@H](CC(C)C)C(=O)N[C@@H](CC(=O)O)C(=O)N[C@@H](CCC(=O)O)C(=O)N[C@@H](Cc1c[nH]cn1)C(=O)N[C@@H](Cc1c[nH]c2ccccc12)C(=O)N[C@@H](CCC(N)=O)C(=O)N[C@@H](CCCNC(=N)N)C(=O)N[C@H](C(=O)N[C@@H](Cc1c[nH]c2ccccc12)C(=O)N1CCC[C@H]1C(N)=O)C(C)C [compound 411] (HELM PEPTIDE1{[ac].[bAla].R.L.P.E.S.I.L.D.E.H.W.Q.R.V.W.P.[am]}$$$$V2.0) | 1 to 10 | – | 0.7 |
| CC[C@H](C)[C@@H]1NC(=O)[C@@H](NC(=O)[C@H](CCC(N)=O)NC(=O)[C@H](C)N(C)C(=O)[C@H](Cc2c[nH]c3ccccc23)NC(C)=O)CCCCNC(=O)CC[C@@H](C(=O)N[C@@H](Cc2c[nH]cn2)C(=O)N[C@H](C(=O)NC(C)(C)C(=O)N[C@@H](CCCNC(=N)N)C(=O)N[C@H](C(=O)N[C@@H](Cc2c[nH]c3ccccc23)C(=O)NCC(N)=O)C(C)C)C2CCCCC2)NC(=O)[C@H](CC(=O)O)NC(=O)[C@H](CC(C)C)NC1=O [compound 414] (HELM PEPTIDE1{[ac].W.[meA].Q.K.I.L.D.E.H.[O=C([C@@H](N[*:1])C1CCCCC1)[*:2]].[Aib].R.V.W.G.[am]}$PEPTIDE1,PEPTIDE1,5:R3-9:R3$$$V2.0) | < 0.4 | – | 0.7 |
| CC[C@H](C)[C@@H]1NC(=O)[C@@H](NC(=O)[C@H](CCC(N)=O)NC(=O)[C@H](C)N(C)C(=O)[C@@H](N)Cc2c[nH]c3ccccc23)CCCCNC(=O)CC[C@@H](C(=O)N[C@@H](Cc2c[nH]cn2)C(=O)N[C@H](C(=O)N[C@@H](CO)C(=O)N[C@@H](CCCNC(=N)N)C(=O)N[C@H](C(=O)N[C@@H](Cc2c[nH]c3ccccc23)C(=O)NCC(N)=O)C(C)C)C2CCCCC2)NC(=O)[C@H](CC(=O)O)NC(=O)[C@H](CC(C)C)NC1=O [compound 415] (HELM PEPTIDE1{W.[meA].Q.K.I.L.D.E.H.[O=C([C@@H](N[*:1])C1CCCCC1)[*:2]].S.R.V.W.G.[am]}$PEPTIDE1,PEPTIDE1,4:R3-8:R3$$$V2.0) | < 0.4 | – | 0.7 |
| CC[C@H](C)[C@@H]1NC(=O)[C@@H](NC(=O)[C@H](CCC(N)=O)NC(=O)[C@H](C)N(C)C(=O)[C@H](Cc2c[nH]c3ccccc23)NC(C)=O)CCCCNC(=O)CC[C@@H](C(=O)N[C@@H](Cc2c[nH]cn2)C(=O)N[C@H](C(=O)N[C@@H](CO)C(=O)N[C@@H](CCCNC(=N)N)C(=O)N[C@H](C(=O)N[C@@H](Cc2c[nH]c3ccccc23)C(=O)NCC(N)=O)C(C)C)C2CCCCC2)NC(=O)[C@H](CC(=O)O)NC(=O)[C@H](CC(C)C)NC1=O [compound 416] (HELM PEPTIDE1{[ac].W.[meA].Q.K.I.L.D.E.H.[O=C([C@@H](N[*:1])C1CCCCC1)[*:2]].S.R.V.W.G.[am]}$PEPTIDE1,PEPTIDE1,5:R3-9:R3$$$V2.0) | < 0.4 | – | 0.7 |
| CC[C@H](C)[C@@H]1NC(=O)[C@@H](NC(=O)C(C)(C)NC(=O)[C@H](C)N(C)C(=O)[C@@H](N)Cc2c[nH]c3ccccc23)CCCCNC(=O)CC[C@@H](C(=O)N[C@@H](Cc2c[nH]cn2)C(=O)N[C@H](C(=O)N[C@@H](CCC(N)=O)C(=O)N[C@@H](CCCNC(=N)N)C(=O)N[C@H](C(=O)N[C@@H](Cc2c[nH]c3ccccc23)C(=O)NCC(N)=O)C(C)C)C2CCCCC2)NC(=O)[C@H](CC(=O)O)NC(=O)[C@H](CC(C)C)NC1=O [compound 417] (HELM PEPTIDE1{W.[meA].[Aib].K.I.L.D.E.H.[O=C([C@@H](N[*:1])C1CCCCC1)[*:2]].Q.R.V.W.G.[am]}$PEPTIDE1,PEPTIDE1,4:R3-8:R3$$$V2.0) | < 0.4 | – | 0.93 |
| CC[C@H](C)[C@@H]1NC(=O)[C@@H](NC(=O)C(C)(C)NC(=O)[C@H](C)N(C)C(=O)[C@H](Cc2c[nH]c3ccccc23)NC(C)=O)CCCCNC(=O)CC[C@@H](C(=O)N[C@@H](Cc2c[nH]cn2)C(=O)N[C@H](C(=O)N[C@@H](CCC(N)=O)C(=O)N[C@@H](CCCNC(=N)N)C(=O)N[C@H](C(=O)N[C@@H](Cc2c[nH]c3ccccc23)C(=O)NCC(N)=O)C(C)C)C2CCCCC2)NC(=O)[C@H](CC(=O)O)NC(=O)[C@H](CC(C)C)NC1=O [compound 418] (HELM PEPTIDE1{[ac].W.[meA].[Aib].K.I.L.D.E.H.[O=C([C@@H](N[*:1])C1CCCCC1)[*:2]].Q.R.V.W.G.[am]}$PEPTIDE1,PEPTIDE1,5:R3-9:R3$$$V2.0) | > 30 | – | 1.03 |
| CC[C@H](C)[C@@H]1NC(=O)[C@@H](NC(=O)[C@H](CCC(N)=O)NC(=O)[C@H](C)N(C)C(=O)[C@H](Cc2c[nH]c3ccccc23)NC(=O)CCNC(C)=O)CCCCNC(=O)CC[C@@H](C(=O)N[C@@H](Cc2c[nH]cn2)C(=O)N[C@H](C(=O)N[C@@H](CCC(N)=O)C(=O)N[C@@H](CCCNC(=N)N)C(=O)N[C@H](C(=O)N[C@@H](Cc2c[nH]c3ccccc23)C(=O)NCC(N)=O)C(C)C)C2CCCCC2)NC(=O)[C@H](CC(=O)O)NC(=O)[C@H](CC(C)C)NC1=O [compound 419] (HELM PEPTIDE1{[ac].[bAla].W.[meA].Q.K.I.L.D.E.H.[O=C([C@@H](N[*:1])C1CCCCC1)[*:2]].Q.R.V.W.G.[am]}$PEPTIDE1,PEPTIDE1,6:R3-10:R3$$$V2.0) | < 0.4 | – | 0.7 |
| CC(C)C[C@@H]1NC(=O)[C@H](C2CCCCC2)NC(=O)[C@@H](NC(=O)[C@H](CCC(N)=O)NC(=O)[C@H](C)N(C)C(=O)[C@@H](N)Cc2c[nH]c3ccccc23)CCCCNC(=O)CC[C@@H](C(=O)N[C@@H](Cc2c[nH]cn2)C(=O)N[C@H](C(=O)N[C@@H](CCC(N)=O)C(=O)N[C@@H](CCCNC(=N)N)C(=O)N[C@H](C(=O)N[C@@H](Cc2c[nH]c3ccccc23)C(=O)NCC(N)=O)C(C)C)C(C)C)NC(=O)[C@H](CC(=O)O)NC1=O [compound 420] (HELM PEPTIDE1{W.[meA].Q.K.[O=C([C@@H](N[*:1])C1CCCCC1)[*:2]].L.D.E.H.V.Q.R.V.W.G.[am]}$PEPTIDE1,PEPTIDE1,4:R3-8:R3$$$V2.0) | 0.4 to 1 | – | 0.7 |
| CC(=O)N[C@@H](Cc1c[nH]c2ccccc12)C(=O)N(C)[C@@H](C)C(=O)N[C@@H](CCC(N)=O)C(=O)N[C@H]1CCCCNC(=O)CC[C@@H](C(=O)N[C@@H](Cc2c[nH]cn2)C(=O)N[C@H](C(=O)N[C@@H](CCC(N)=O)C(=O)N[C@@H](CCCNC(=N)N)C(=O)N[C@H](C(=O)N[C@@H](Cc2c[nH]c3ccccc23)C(=O)NCC(N)=O)C(C)C)C(C)C)NC(=O)[C@H](CC(=O)O)NC(=O)[C@H](CC(C)C)NC(=O)[C@H](C2CCCCC2)NC1=O [compound 421] (HELM PEPTIDE1{[ac].W.[meA].Q.K.[O=C([C@@H](N[*:1])C1CCCCC1)[*:2]].L.D.E.H.V.Q.R.V.W.G.[am]}$PEPTIDE1,PEPTIDE1,5:R3-9:R3$$$V2.0) | < 0.4 | – | 0.7 |
